Earlier results as cited in publication PMC3828007 (CPT: Pharmacometrics & Systems Pharmacology, 2013).

Legend:
NET (plasma DHPG) = conditions: read-out: in vivo EC50 for inhibitory effect on plasma DHPG

With COc1ccc(C(CN(C)C)C2(O)CCCCC2)cc1 (centres unmarked) [venlafaxine] as the compound, how does the CYP inhibition liability (CYP) read?
Its CYP inhibition liability is “moderate”.
